Key:
human CD14+ monocytes = assay: NAT_29 dose response, IL-10 secretion from monocytes co-stimulated with LPS (AlphaLISA); type: cell-based; details: LPS 100 ng/ml, 24 hours
Protocol: To investigate the IL-10 inducing/enhancing capacity of NAT_29, in vitro IL-10 secretion of human immune cells in the presence of different doses of NAT_29 was tested. Briefly, human CD14+ monocytes were isolated from peripheral blood mononuclear cells (PBMCs) from healthy human volunteers by density gradient centrifugation using SepMate™-50 IVD tubes (Stemcell, Ref. 85460). The obtained PBMCs were washed thrice with Dulbeccos's phosphate buffered saline (PBS, Sigma, D88537) and lysed 10 min at room temperature in Red blood Lysis buffer 1X (Miltenyi Biotec, 130-094-183). Cells were washed with MACS buffer (Miltenyi Biotec, 130-091-221) and counted using the trypan blue dye exclusion method. CD14+monocytes were sorted using anti-human CD14 Microbeads (Miltenyi Biotec, 130-050-201) as per manufacturer's protocol. Positive CD14+ fractions were collected and seeded at 2×10^4 cells per well in 384 well plates in IMDM medium (Gibco, 12440-046) supplemented with 10% FBS and 1X antibiotic solution.
[…] IL-10 secretion were measured at 24 hours by AlphaLISA® on cell supernatants according to the supplier's protocol and read on an Envision plate reader (Perkin Elmer).

TNBS-induced colitis = assay: Acute colitis induced by TNBS in rats (Wallace score, colon Lipocalin-2, mortality); type: in vivo, Sprague-Dawley rats; details: intrarectal; for Wallace score: once a day, evaluated 4 days after TNBS
Text: Next, anti-inflammatory properties of the NAT_29 polypeptide (SEQ ID NO: 1) have been evaluated in the 2,4,6-trinitrobenzene sulfonic acid (TNBS)-induced colitis model. The model of colitis induced by TNBS in rats is a validated animal model to evaluate the anti-inflammatory properties of drugs in intestinal bowel diseases (IBD). TNBS induces deep inflammation resulting in necrosis (with transmural destruction of the intestine wall) of the colon. This model is well-characterized, reliable, reproducible, and admitted by regulatory authorities in IBD (e.g., as described in Antoniou, E., et al. (2016). The TNBS-induced colitis animal model: An overview. Annals of medicine and surgery, vol. 11, 9-15, which is incorporated herein in its entirety).
To this end, the NAT_29 polypeptide (SEQ ID NO: 1) was administered by intrarectal instillation at two different concentrations (1 and 0.1 μM) in the model of acute colitis induced by TNBS (intrarectal administration at 80 mg/kg) in Sprague-Dawley rats. The anti-inflammatory effects were evaluated at the macroscopic level using validated score of Wallace and compared to those induced by the positive control (5-ASA) administered also by intrarectal instillation.
Resolution of inflammation was also evaluated using colon Lipocalin-2 (Lcn-2) quantification. Lipocalin-2, also known as neutrophil gelatinase-associated lipocalin (NGAL), is considered as a clinically relevant biomarker of IBD. […] In rodent models of colitis, a strong association has been shown between elevated levels of Lcn-2 and colitis severity.
Male Sprague-Dawley rats (Body weight: around 100-150 g) were allocated randomly and blindly 4 per cage and acclimated for one week. Rats were obtained from Janvier Laboratoires, Le Genest Saint-Isle, France.
The tested products were administered once a day by intrarectal instillation (500μl) in a prophylactic and therapeutic mode starting at day -5, i.e. 5 days before colitis induction (DO) and until euthanasia at D4, corresponding to 9 treatment days in total.
For colitis induction, Sprague Dawley rats were anesthetized for 2 hours using a subcutaneous injection of xylazine at 12.5 mg/kg/ketamin at 25 mg/kg. […] The TNBS solution at 80 mg/kg was prepared based on the mean body weight of rats, which is recorded before the TNBS solution preparation.
NAT_29 was solubilized in PBS and the active concentration for animal treatment was calculated assuming a maximum volume of colon-rectum content in rat of 3.5ml. […]
Animals were sacrificed 4 days (D4) after TNBS administration (DO) for evaluation of the intensity of colitis. Samples from distal colon were collected and used for macroscopic assessments and lipocalin quantification. […]

monocytes = assay: Kinetics of IL-10, TNF-α and IL-6 secretion from monocytes co-stimulated with LPS (AlphaLISA); type: cell-based, human; details: 1 μM, LPS 10 ng/ml
Protocol: To confirm the anti-inflammatory potential of NAT_29 (SEQ ID NO: 1), a kinetic study was performed to test the concomitant secretion of IL-10 and the major pro-inflammatory cytokines TNF-α and IL-6. To this end, monocytes were obtained as described in Example 3 and stimulated with 1 μM NAT_29 polypeptide (SEQ ID NO: 1), co-stimulated with 10 ng/ml of LPS from E. coli O111: B4 (InvivoGen, tlrl-eblps) and placed in humidified CO2 incubator at 5% CO2/37° C. for 72 h. IL-10, TNF-α and IL-6 secretion were measured at 5, 10, 24, 48 and 72 hours by AlphaLISA® on cell supernatants according to the supplier's protocol (Perkin, ref. AL218F, AL208F, AL223F) and read on an Envision plate reader (Perkin Elmer).

## KKGSRSCFFIYLDRGTKKGSRSCFFYLP (NAT_29) [28-amino-acid fragment of microbiota protein ID3166]
Human CD14+ monocytes; 0.1 to 1000 nM
  IL-10 secretion from monocytes: highest IL-10 levels were measured in both cell types at the highest concentration of NAT_29 tested
Human CD14+ monocytes; IL-10 secretion
  sensitivity of monocytes versus MoDCs to the action of NAT_29: monocytes appeared to be more sensitive than MoDCs
TNBS-induced colitis; final concentration of 0.1 μM
  Wallace score: protective effect (albeit not significant)
TNBS-induced colitis; final concentration of 0.1 μM, 4 days after TNBS
  lipocalin-2 level in the colon (ELISA): slight decrease of lipocalin-2 level (albeit not significant)
TNBS-induced colitis; final concentration of 1 μM
  Wallace score: statistically protective effect
TNBS-induced colitis; final concentration of 1UM, 4 days after TNBS
  Lipocalin levels in the colon (ELISA): significant decrease of Lipocalin levels
monocytes; 5, 10, 24, 48 and 72 hours
  IL-6 secretion: no significant secretion
  TNF-a secretion: no significant secretion
monocytes; peak at 24 h, mean of six monocyte donors
  IL-10 secretion, fold in respect to LPS, peak: 2 fold
monocytes; until the end of the experiment (72 h)
  IL-10 secretion, fold in respect to LPS, after peak: 1,5 Fold

— patent US20240327471A1, “IL-10 INDUCING POLYPEPTIDES AND USES THEREOF” (ENTEROME S.A., priority 2021, published 2024)
